Experiments:
[1] = test system: organotypic hippocampal cultures; set-up: method as in PMID 37775304, PMID 37947648; details: nanomolar doses; ref [24],[25]; cited from earlier work
[2] = Cell-free MTT-based H2S release assay; format: physicochemical; details: 24 h incubation in MEM with 10% DMSO
Procedure: Solutions at different concentrations of each compound in 100 µL of serum-free MEM/10% DMSO with 0.5 mg/mL 3-(4,5-dimethylthiazol-2yl)-2,5-diphenyltetrazolium bromide (MTT) were incubated for 5 h or 24 h in a humidified incubator at 37 °C in 5% CO2 atmosphere. The experimental design comprised blank wells containing only medium and MTT, and a H2S calibration curve obtained by incubating nine solutions at decreasing concentrations (100 µM to 0.01 µM) of NaHS in medium and MTT. At the end of incubation time, the supernatant was removed, the […] crystals were dissolved in 100 µL DMSO/EtOH (1:1 v/v), and absorbance values were read using a Victor 3 plate reader (PerkinElmer, Shelton, CT, USA) at 570 nm. H2S values are expressed as mean ± S.E.M. of the results of three independent experiments conducted in triplicate, and were plotted using GraphPad Prism 7.
To decipher such results and considering the redox properties of H2S, we questioned if H2S released by our compounds in the culture media could interfere with the conversion of MTT (3-[4,5-dimethylthiazol-2-yl]-2,5-diphenyl tetrazolium bromide) to formazan, which is usually related to cell viability. Thus, we ran cell-free experiments in which MTT was used as the substrate to capture the reductive action of H2S. We found, in agreement with Gerő et al., that some of our thioureas and thioamides reduced MTT to formazan after 24 h incubation in MEM with 10% DMSO.

[3] = test system: HepG2 hepatocarcinoma cells; test: MTT cell viability assay, MTT added directly to treated media; format: cell-based, human; details: 5% DMSO
Procedure: The cytotoxicity of our compounds was assessed using the well-established MTT assay. HepG2 hepatocarcinoma cells were cultured in Minimum Essential Medium (MEM) (Euroclone, Pero, Italy), supplemented with 10% fetal bovine serum (Euroclone, Pero, Italy), 100 U/mL penicillin, and 100 µg/mL streptomycin sulfate, at 37 °C in a humidified incubator in 5% CO2 atmosphere. For the MTT assays, these cells were cultured up to about 90% confluence and were then seeded at a concentration of 20,000 cells per well in 96-well plates. After 24 h, the culture medium was replaced with solutions at various concentrations of each compound in MEM/DMSO 5% (v/v). Control wells were incorporated in the experimental design, consisting of vehicle (MEM/DMSO 5%) and pure medium controls.
In the first round of cytotoxicity assays, 0.5 mg/mL MTT was added to each well 2 or 24 h from treatment and left to incubate for 3–5 h. In the second round of cytotoxicity assays, at 2 or 24 h after treatment, treated media were removed, the cells were washed once in PBS, and fresh medium containing 0.5 mg/mL MTT was added to each well and left to incubate for 3–5 h.
Subsequently, the supernatant was removed, and the formazan crystals were dissolved in DMSO/EtOH 1:1 (100 µL/well). Absorbance values were then recorded from each well using a Victor 3 plate reader (PerkinElmer, Shelton, CT, USA) at 570 nm. All presented data were obtained from 3 to 5 experiments performed in triplicate. Cell viability values are expressed as mean ± S.E.M. and were plotted using GraphPad Prism 7.
Next, we assessed H2S release in a biological environment using human hepatocarcinoma HepG2 cells as a model. The intracellular release of H2S was detected with the WSP-1 probe, a turn-on fluorescent probe that selectively and irreversibly reacts with H2S. Considering that a high micromolar concentration of the test compounds is required to obtain a robust fluorescent signal, we first evaluated the compounds’ cytotoxicity after 2 h and 24 h of incubation with the MTT assay in HepG2 cells. […] We accounted for this by adding a vehicle control with 5% DMSO and a control without DMSO to our experimental design.

[4] = test system: HepG2 cells; test: Intracellular H2S release with WSP-1 probe; format: cell-based, human
Procedure: All cell culture reagents were purchased from S.I.A.L. S.r.l. (Rome, Italy). WSP-1 (Washington State Probe-1, 3′-methoxy-3-oxo-3H-spiro[isobenzofuran-1,9′-xanthen]-6′-yl 2-(pyridine-2-yl-disulfanyl benzoate), was obtained from Cayman Chemical (Cayman, Ann Arbor, MI, USA). HepG2, human hepatocellular carcinoma cells, was obtained from American Type Culture Collection (ATCC, Bethesda, MD, USA). Human hepatocellular carcinoma cells (HepG2) were cultured in Minimum Essential Eagle’s Medium. This medium was supplemented with 10% (v/v) Fetal Bovine Serum, 1% (v/v) Glutamine and 1% (v/v) Penicillin-Streptomycin, 1% non-essential amino acids. Cells were cultivated at 37 °C with 5% CO2 at saturated humidity.
These experiments were carried out as already described. HepG2 cells were cultured up to about 90% confluence, and 24 h before the experiment cells were seeded into a 96-well flat bottom black plate (50,000 cells per well). After 24 h, the medium was replaced and cells were incubated at 37 °C for 30 min with a 10 mM solution of the fluorescent WSP-1 probe, which is highly sensitive for H2S detection. After incubation, the supernatant was removed and replaced with different concentrations (100, 200, and 300 µM) of the tested compounds dissolved in HBSS buffer. […] ADT 100 µM was used as a slow H2S-donor reference compound. Data were analyzed by one-way ANOVA for repeated measures, followed by post hoc Bonferroni’s multiple comparison test. Results are expressed as mean ± SEM of 3 independent experiments in triplicate. Statistical significance was accepted at a level of p < 0.05.
Next, we assessed the intracellular H2S release of thioureas and thioamides in HepG2 cells. The compounds were tested at different concentrations (100–300 μM) to evaluate if the release was dose-dependent. We also assayed ADT-OH and TIA as reference H2S-donors, and 3a as a negative control. The results were normalized to the fluorescence signal obtained with 100 μM ADT-OH.

[5] = target: T1, FPR2 (Homo sapiens, UniProt P25090); test: Ca2+ mobilization (agonist activity) in FPR2-HL60 cells; details: for fold less potent at FPR2 than the corresponding urea/amide: ratio of FPR2 EC50 vs 3b, 3c or 4b; for Ca2+ Mobilization HL60-FPR2 Efficacy: response to 5 nM WKYMVM = 100%
T1 sequence (P25090 1-351): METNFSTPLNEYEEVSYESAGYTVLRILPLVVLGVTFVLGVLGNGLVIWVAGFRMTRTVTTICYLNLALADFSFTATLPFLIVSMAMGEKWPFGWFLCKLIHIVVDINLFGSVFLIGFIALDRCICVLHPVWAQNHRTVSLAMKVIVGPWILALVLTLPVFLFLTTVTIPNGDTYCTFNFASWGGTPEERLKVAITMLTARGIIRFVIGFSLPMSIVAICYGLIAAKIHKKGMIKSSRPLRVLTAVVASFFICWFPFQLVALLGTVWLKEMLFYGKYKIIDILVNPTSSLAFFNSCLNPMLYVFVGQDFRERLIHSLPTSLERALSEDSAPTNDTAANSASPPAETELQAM

[6] = target: T1, FPR2; test: cell-based
[7] = target: T1, FPR2; test: FPR2 desensitization: inhibition of WKYMVM-induced Ca2+ mobilization in FPR2-HL60 cells; format: cell-based; set-up: expressed in transfected cells; host or cells: HL-60 cells; details: 10 min preincubation, then 5 nM WKYMVM
Source text: Finally, we assessed the ability of compounds to induce receptor desensitization at FPR2 by measuring the inhibition of Ca^2+ mobilization induced by subsequent treatment with a standard FPR2 agonist (IC50, Table 1) because FPR2 undergoes homologous desensitization after stimulation with agonists, resulting in functional antagonism (IC50, Table 1). […] We also evaluated the effects of the thiourea and thioamide derivatives on Ca^2+ mobilization in FPR1-HL60-transfected cells after stimulation with the FPR1 agonist (IC50, Table 1).

[8] = HepG2, tested concentrations 100-300 μM, 60 min

EC50 [6]	fold less potent at FPR2 than the corresponding urea/amide [5]	Ca2+ Mobilization HL60-FPR2 Efficacy [5]	SMILES	absorbance signal (MTT reduction to formazan) indicative of H2S release [2]	MTT absorbance signal vs control ([3]; HepG2, 2 h incubation)	intracellular H2S release, WSP-1 fluorescence signal vs vehicle [4, 8]	Ca2+ Mobilization HL60-FPR2 IC50 (FPR2 desensitization) [7]	intracellular H2S release, WSP-1 fluorescence signal vs vehicle ([4]; HepG2, at 200 and 300 μM)	also measured
			N#Cc1ccc(C[C@H](NC(=O)Nc2ccc(F)cc2)C(=O)N2CCc3ccccc32)cc1 [3b, (S)-1-[3-(4-cyanophenyl)-1-(indolin-1-yl)-1-oxopropan-2-yl]-3-(4-fluorophenyl)urea]						protective and anti-inflammatory properties [1]: beneficial protective and anti-inflammatory properties at nanomolar doses
			N#Cc1ccc(C[C@H](NC(=O)Nc2ccc(F)cc2)C(=O)N2CCc3ccc(F)cc32)cc1 [3c, (S)-1-[3-(4-cyanophenyl)-1-(6-fluoroindolin-1-yl)-1-oxopropan-2-yl]-3-(4-fluorophenyl)urea]						protective and anti-inflammatory properties [1]: beneficial protective and anti-inflammatory properties at nanomolar doses
			N#Cc1ccc(C[C@H](NC(=S)Nc2ccc(F)cc2)C(=O)NCC2(c3ccc(F)c(Cl)c3)CC2)cc1 [5a, (S)-N-[[1-(3-Chloro-4-fluorophenyl)cyclopropyl]methyl]-3-(4-cyanophenyl)-2-[3-(4-fluorophenyl)thioureido]propanamide]	did not give off any detectable absorbance signal	pronounced signal	comparable to vehicle			MTT absorbance signal vs control ([3]; HepG2, 24 h incubation): higher than the control; Ca2+ Mobilization HL60-FPR2 EC50 ([5]; HL-60 cells transfected with human FPR2): inactive
2.2 ± 0.7 µM	more than 10 fold	65%	N#Cc1ccc(C[C@H](NC(=S)Nc2ccc(F)cc2)C(=O)N2CCc3ccccc32)cc1 [5b, (S)-1-[3-(4-Cyanophenyl)-1-(indolin-1-yl)-1-oxopropan-2-yl]-3-(4-fluorophenyl)thiourea]	significant absorbance signal with slight dose-dependent effects			inactive		
12 ± 32 µM	more than 10 fold	105%	N#Cc1ccc(C[C@H](NC(=S)Nc2ccc(F)cc2)C(=O)N2CCc3ccc(F)cc32)cc1 [5c]	significant absorbance signal with slight dose-dependent effects	pronounced signal		inactive	statistically significant increase in the fluorescent signal	
1.7 ± 0.7 µM	more than 10 fold	65%	N#Cc1ccc(C[C@H](NC(=S)Nc2ccc(Br)cc2)C(=O)N2CCc3ccccc32)cc1 [6b, (S)-1-(4-Bromophenyl)-3-[3-(4-cyanophenyl)-1-(indolin-1-yl)-1-oxopropan-2-yl]thiourea]		pronounced signal			statistically significant increase in the fluorescent signal	MTT absorbance signal vs control ([3]; HepG2, 24 h incubation): higher than the control; IC50 [7]: 2.2 ± 0.4 µM
2.3 ± 0.8 µM		145%	N#Cc1ccc(C[C@H](NC(=O)Nc2ccc(F)cc2)C(=S)NCC2(c3ccc(F)c(Cl)c3)CC2)cc1 [7a, (S)-N-[[1-(3-Chloro-4-fluorophenyl)cyclopropyl]methyl]-3-(4-cyanophenyl)-2-[3-(4-fluorophenyl)ureido]propanethioamide]	below the assay’s detection limit		significant fluorescence signal increase at all tested concentrations	submicromolar concentration		intracellular level of H2S vs reference H2S donor ADT ([4]; HepG2, at 200 and 300 μM, p < 0.001 vs. ADT): more than the reference H2S donor ADT; levels of H2S release in HepG2 cells ([4]; summary of WSP-1 results): very high levels of H2S release; IC50 [7]: 0.3 ± 0.1 µM
			O=c1cc(-c2cccc(O)c2)ss1 [ADT-OH, 5-(5-hydroxyphenyl)-3H-1,2-dithiol-3-one, reference compound]			statistically significant increase in fluorescence			
			[Na+].[SH-] [NaHS, sodium hydrogen sulfide, reference compound]	strong dose-dependent signal					
			NC(=O)c1ccc(O)cc1 [TIA, 4-hydroxybenzamide, reference compound]					statistically significant increase in fluorescence	
